Converted amounts (≈) assume the structure as drawn. Like-named read-outs stand apart in the source and are kept apart here.
Tests used:
[1] = Cytotoxic assay, resazurin reduction test, 48 h; format: cell-based, human; conditions: human
Description: (§1) We plated in 96-well microplates—each containing a 100 µL culture medium—exponentially growing cells of human skin fibroblasts WS1, human HaCaT keratinocytes, human lung carcinoma A-549, and human colon adenocarcinoma DLD-1 at a density of 5 × 10^3 cells per well (Costar, Corning Inc., Lowell, MA, USA). The cells were allowed to adhere for 16 h before treatment. We then treated cells with T. vulgare essential oil or dissolved compounds in DMSO. The final concentration of DMSO in the culture medium was 0.5% (v/v) to avoid solvent toxicity. After 48 h, we assessed the cytotoxicity using the resazurin reduction test. Fluorescence was measured on an automated Fluoroskan Ascent FL^TM plate reader (Labsystems, Milford, MA, USA) using an excitation wavelength of 530 nm and an emission wavelength of 590 nm.

[2] = test system: NO production in murine macrophage RAW 264.7 cells; experiment: Inhibition of NO production in LPS-stimulated RAW 264.7 macrophages (Griess reaction); format: cell-based; conditions: for IC50 / Anti-Inflammation IC50: inhibition of NO production, RAW 264.7, 100 ng·mL^−1 LPS, 24 h; for IC50: read-out: Anti-Inflammation IC50
Description: We evaluated the inhibition NO production by T. vulgare essential oil and compounds as described by Legault et al.. Control L-NAME was used as positive control. Murine macrophage RAW 264.7 cells were incubated with essential oil or dissolved compounds in DMSO and then stimulated with 100 ng·mL^−1 LPS and incubated at 37 °C. After 24 h, we collected the cell-free supernatants and immediately determined the NO concentration using the Griess reaction. We read the absorbance at 540 nm using an automated Varioskan Ascent plate reader (Labsystems, Milford, MA, USA), and quantified the presence of nitrite by comparing with a NaNO2 standard curve.

in vitro = conditions: human
Description: as §1
We assessed the cytotoxic activity of T. vulgare essential oil and its main compounds against human lung carcinoma A-549, colon adenocarcinoma DLD-1, human keratinocytes HaCaT, and healthy WS1 cell lines.

[3] = test system: human skin fibroblasts WS1; experiment: Cell-based antioxidant DCFH-DA assay (tert-butylhydroperoxide-induced DCFH oxidation); conditions: inhibition of DCFH oxidation induced by tert-butylhydroperoxide, WS1 cells; for IC50: Homo sapiens
Description: Antioxidant activity was evaluated using the DCFH-DA assay as described by Girard-Lalancette et al.. To assess antioxidant activity, we incubated the human skin fibroblasts WS1 for 1 h with a growing concentration of essential oil or dissolved compounds in DMSO. We then added 100 µL of 200 µM tert-butylhydroperoxide and immediately measured fluorescence as well as again after 90 min later. Measurements were performed on an automated plate reader (Fluoroskan Ascent FL, Labsystems, Milford, MA, USA) using an excitation wavelength of 485 nm and an emission wavelength of 530 nm.

[4] = test system: Escherichia coli (ATCC 25922); experiment: Antibacterial hydrophobic assay (resazurin); format: cell-based
Description: (§2) We tested the antibacterial activities of T. vulgare essential oil and compounds against gram-negative Escherichia coli (ATCC bacteria 25922) and gram-positive Staphylococcus aureus (ATCC bacteria 25923) using the antibacterial hydrophobic assay as described by Côté et al.. This new method was developed and used in this work as classical methods including disc diffusion and microdilution assays are sometimes inefficient for testing a matrix or compounds of a hydrophobic nature. Briefly, after microorganisms passed 16–18 h at 37 °C in a nutrient broth base (Difco), we transferred 20 µL methanol containing growing concentrations of essential oil and compounds (3.1 to 200 µg·mL^−1) onto nutrient agar of 96-well plates. We then added bacterial strains having a concentration of 5 × 10^3 colony forming units (CFU) per mL of nutrient broth. […] The blank consisted of culture medium only and was subtracted from all subsequent measurements of every other well. The 96-well plates were then incubated at 37 °C for 5 h to foster bacterial growth. We then added 100 µL of resazurin sodium salt solution having a concentration of 50 µg·mL^−1 (Sigma R-2127, St-Louis, MO, USA) to each well.

[5] = test system: Staphylococcus aureus (ATCC 25923); experiment: Antibacterial hydrophobic assay (resazurin); format: cell-based
Description: as §2

[6] = test system: human skin fibroblasts WS1; experiment: Cytotoxic assay, resazurin reduction test, 48 h; format: cell-based; conditions: WS1, 48 h
Description: as §1

[7] = test system: human colon adenocarcinoma DLD-1; experiment: Cytotoxic assay, resazurin reduction test, 48 h; format: cell-based; conditions: DLD-1, 48 h
Description: as §1

[8] = test system: human lung carcinoma A-549; experiment: Cytotoxic assay, resazurin reduction test, 48 h; format: cell-based; conditions: A-549, 48 h
Description: as §1

[9] = A-549 lung carcinoma cells, A-549, 48 h, read-out: Cytotoxicity IC50 A549
[10] = DLD-1 colon adenocarcinoma cells, DLD-1, 48 h, read-out: Cytotoxicity IC50 DLD1
[11] = WS1 skin fibroblasts, WS1, 48 h, read-out: Cytotoxicity IC50 WS1
[12] = E. coli, 50% inhibition of bacterial growth
[13] = Escherichia coli, ATCC25922, E. coli, 50% inhibition of bacterial growth
[14] = S. aureus, 50% inhibition of bacterial growth
[15] = Staphylococcus aureus, ATCC25923, S. aureus, 50% inhibition of bacterial growth
[16] = A-549, 48 h, read-out: Cytotoxicity IC50 A549
[17] = DLD-1, 48 h, read-out: Cytotoxicity IC50 DLD1
[18] = WS1, 48 h, read-out: Cytotoxicity IC50 WS1
[19] = Escherichia coli, ATCC25922, read-out: Antibacterial IC50 E. coli
[20] = Staphylococcus aureus, ATCC25923, read-out: Antibacterial IC50 S. aureus

Row | Structure (SMILES) | IC50 at 48 h [1, 9] [µg/mL] | IC50 at 48 h [1, 10] [µg/mL] | IC50 at 48 h [1, 11] [µg/mL] | IC50 ([2]; Mus musculus, RAW264.7) [µg/mL] | IC50 at 48 h (in vitro) [µg/mL] | IC50 [3] [µg/mL] | IC50 [4, 13] [µg/mL] | IC50 [5, 15] [µg/mL] | other results
1 | CC1=CCC2CC1C2(C)C (stereo not drawn) [α-Pinene] | 35 ± 6 | 58 ± 18 | 57 ± 4 | 30 ± 4 (≈ 220 µM) | 28 to 112 (≈ 206 to 822 µM) | 3.4 ± 0.2 (≈ 25 µM) |  |  | 
2 | CC12CCC(CC1=O)C2(C)C (stereo not shown) [Camphor] | > 200 | > 200 | > 200 | > 200 | > 200 | > 200 | 22 to 26 (≈ 145 to 171 µM) | 22 to 26 (≈ 145 to 171 µM) | Antibacterial IC50 E. coli [4, 12]: 22 ± 1 µg/mL; Antibacterial IC50 S. aureus [5, 14]: 26 ± 3 µg/mL
3 | COC(=O)[C@@H](N)CCCNC(N)=N[N+](=O)[O-] [L-NAME, reference compound] |  |  |  |  |  |  |  |  | inhibition at 1000 µM ([2]; Mus musculus, RAW264.7, 1 mM, positive control): 64.1%
4 | C=C1CC/C=C(\C)CC[C@@H]2[C@@H]1CC2(C)C [β-Caryophyllene] | 55 ± 5 | 97 ± 6 | 59 ± 7 | > 200 | 28 to 112 (≈ 137 to 548 µM) | > 200 | > 200 | > 200 | 
5 | CC1=CCC(O)(C(C)C)CC1 (stereo not shown) [Terpinen-4-ol] | > 200 | > 200 | > 200 | > 200 |  | > 200 | > 200 | > 200 | 
6 | CC1=CCC(=C(C)C)CC1 [Terpinolene] |  |  |  | > 200 |  |  |  |  | IC50 at 48 h [1, 16]: > 200 µg/mL; IC50 at 48 h [1, 17]: > 200 µg/mL; IC50 at 48 h [1, 18]: > 200 µg/mL; IC50 [4, 19]: > 200 µg/mL; IC50 [5, 20]: > 200 µg/mL
7 | C=C1CC[C@H]2O[C@]2(C)CC[C@@H]2[C@@H]1CC2(C)C [Caryophyllene oxide] |  |  |  |  |  |  |  |  | Cytotoxicity IC50 WS1 [6]: 50 ± 4 µg/mL; Cytotoxicity IC50 DLD1 [7]: 43 ± 3 µg/mL; Cytotoxicity IC50 A549 [8]: 36 ± 2 µg/mL; Antibacterial IC50 E. coli [4, 12]: 97 ± 2 µg/mL; Antibacterial IC50 S. aureus [5, 14]: 10.4 ± 0.9 µg/mL; Anti-Inflammation IC50 [2]: 183 ± 15 µg/mL; Antioxidant IC50 [3]: 6.2 ± 0.5 µg/mL
8 | O=c1c(O)c(-c2ccc(O)c(O)c2)oc2cc(O)cc(O)c12 [Quercetin, reference compound] |  |  |  |  |  | 0.043 (≈ 0.142 µM) |  |  | 
9 | CC12CCC(CC1)C(C)(C)O2 [1,8-Cineole] | > 200 | > 200 | > 200 | > 200 | > 200 | > 200 | > 200 | > 200 | 
10 | CC1(C)C2CCC1(C)C(O)C2 (stereo not shown) [Borneol] | > 200 | > 200 | > 200 | > 200 | > 200 | > 200 | > 200 | > 200 | 
11 | CC1=CC=C(C(C)C)CC1 [α-Terpinene] |  |  |  | 46 ± 4 (≈ 338 µM) | 28 to 112 (≈ 206 to 822 µM) | > 200 |  |  | IC50 at 48 h [1, 16]: 63 ± 10 µg/mL; IC50 at 48 h [1, 17]: 73 ± 7 µg/mL; IC50 at 48 h [1, 18]: 53 ± 12 µg/mL; IC50 [4, 19]: > 200 µg/mL; IC50 [5, 20]: > 200 µg/mL
12 | C=C1CCC2CC1C2(C)C (stereo not drawn) [β-Pinene] |  |  |  | 46 ± 9 (≈ 338 µM) | 28 to 112 (≈ 206 to 822 µM) | > 200 | > 200 | > 200 | IC50 at 48 h [1, 16]: 43 ± 4 µg/mL; IC50 at 48 h [1, 17]: 49.4 ± 0.3 µg/mL; IC50 at 48 h [1, 18]: 29 ± 14 µg/mL
13 | O=C(N[C@H](CO)[C@H](O)c1ccc([N+](=O)[O-])cc1)C(Cl)Cl [Chloramphenicol, reference compound] |  |  |  |  |  |  |  |  | MIC90 ([4]; Escherichia coli, ATCC25922, E. coli, antibiotic positive control): 0.9 µg/mL (≈ 2.79 µM); MIC90 ([5]; Staphylococcus aureus, ATCC25923, S. aureus, antibiotic positive control): 0.73 µg/mL (≈ 2.26 µM)
14 | C=C1C2CCC(C2)C1(C)C (stereo not shown) [Camphene] | 72 ± 2 | 75 ± 5 | 49 ± 1 | > 200 | 28 to 112 (≈ 206 to 822 µM) | > 200 | > 200 | > 200 | 
15 | Cc1ccc(C(C)C)cc1 [p-Cymene] | > 200 | > 200 | > 200 | > 200 |  | > 200 | > 200 | > 200 | 
16 | C/C1=C\CC/C(C)=C/CC(C)(C)/C=C/C1 [α-Humulene] |  |  |  |  |  |  |  |  | Cytotoxicity IC50 WS1 [6]: 24 ± 3 µg/mL; Cytotoxicity IC50 DLD1 [7]: 43 ± 3 µg/mL; Cytotoxicity IC50 A549 [8]: 28 ± 1 µg/mL; Antibacterial IC50 E. coli [4, 12]: >200 µg/mL; Antibacterial IC50 S. aureus [5, 14]: >200 µg/mL; Anti-Inflammation IC50 [2]: 15 ± 2 µg/mL; Antioxidant IC50 [3]: >200 µg/mL
17 | C=C(C)[C@H]1CC=C(C)CC1 [Limonene] |  |  |  |  |  |  |  |  | Cytotoxicity IC50 DLD1 [7]: 31 ± 3 µg/mL; Cytotoxicity IC50 A549 [8]: 71 ± 6 µg/mL; Antibacterial IC50 E. coli [4, 12]: >200 µg/mL; Antibacterial IC50 S. aureus [5, 14]: >200 µg/mL; Anti-Inflammation IC50 [2]: >200 µg/mL
18 | CC(=O)OC1CC2CCC1(C)C2(C)C (stereo not shown) [Bornyl acetate] | > 200 | > 200 | > 200 | > 200 |  | > 200 | > 200 | > 200 | 
19 | COc1cc([C@@H]2c3cc4c(cc3[C@@H](O[C@@H]3O[C@@H]5CO[C@@H](C)O[C@H]5[C@H](O)[C@H]3O)[C@H]3COC(=O)[C@H]23)OCO4)cc(OC)c1O [Etoposide, reference compound] |  |  |  |  |  |  |  |  | IC50 at 48 h ([1]; A-549 lung carcinoma cells, A-549, cytotoxic positive control, read-out: Cytotoxicity IC50 A-549): 2300 nM; IC50 at 48 h ([1]; DLD-1 colon adenocarcinoma cells, DLD-1, cytotoxic positive control, read-out: Cytotoxicity IC50 DLD-1): 2800 nM; IC50 at 48 h ([1]; WS1 skin fibroblasts, WS1, cytotoxic positive control, read-out: Cytotoxicity IC50 WS1): 19000 nM
20 | CC1=CCC(C(C)C)=CC1 [γ-Terpinene] |  |  |  | > 200 | 28 to 112 (≈ 206 to 822 µM) |  |  |  | IC50 at 48 h [1, 16]: 112 ± 15 µg/mL; IC50 at 48 h [1, 17]: > 200 µg/mL; IC50 at 48 h [1, 18]: 82 ± 15 µg/mL; IC50 [4, 19]: > 200 µg/mL; IC50 [5, 20]: 50 ± 9 µg/mL (≈ 367 µM)

From PMC5590070, “Anti-Inflammatory, Antioxidant, Antibiotic, and Cytotoxic Activities of Tanacetum vulgare L. Essential Oil and Its Constituents” (Medicines, 2017)
